Each compound was assayed against recombinant human AMCase (Homo sapiens, UniProt Q9BZP6) (assay: Human AMCase Activity Assay). Settings: recombinant hAMCase, 4-methylumbelliferyl B-D-N,N′-diacetylchitobioside substrate, citrate buffer pH 5.2, 37° C., 60 minutes.
Format: biochemical
Protocol: Human AMCase Activity Assay
The assay was run in the 96-well plate format, each reaction in the total volume of 100 μL. 4-Methylumbelliferyl B-D-N,N′-diacetylchitobioside hydrate was used as a substrate for the enzyme. Upon hydrolysis by AMCase, the substrate releases 4-methylumbelliferyl (4MU) that, when ionized in basic pH, emits fluorescence at 460 nm.
Briefly, 40 μL of a substrate was added to each well, followed by 10 μL of compound dilution and 50 μL of hAMCase recombinant enzyme solution. […] The fluorescence of the reaction product was measured in Perkin Elmer Envision fluorescent plate reader at an excitation wavelength of 355 nm.

Sequence of recombinant human AMCase (Q9BZP6 22-476): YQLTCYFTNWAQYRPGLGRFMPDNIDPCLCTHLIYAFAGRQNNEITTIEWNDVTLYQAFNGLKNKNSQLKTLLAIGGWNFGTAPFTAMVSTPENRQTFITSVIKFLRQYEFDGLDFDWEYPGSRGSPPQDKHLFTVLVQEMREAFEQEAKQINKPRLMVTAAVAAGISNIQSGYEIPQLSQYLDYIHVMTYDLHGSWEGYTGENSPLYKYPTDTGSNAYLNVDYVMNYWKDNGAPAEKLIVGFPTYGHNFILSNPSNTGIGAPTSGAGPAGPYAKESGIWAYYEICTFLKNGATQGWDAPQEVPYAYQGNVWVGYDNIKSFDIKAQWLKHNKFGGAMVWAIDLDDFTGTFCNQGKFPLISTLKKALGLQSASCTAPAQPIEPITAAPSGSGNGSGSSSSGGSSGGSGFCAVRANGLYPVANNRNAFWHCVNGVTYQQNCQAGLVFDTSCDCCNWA

| SMILES | IC50 |
| --- | --- |
| CC(=O)NS(=O)(=O)c1cccc(CN(CCc2ccc(Br)cc2)C2CCN(c3nc(N)n[nH]3)CC2)c1 [Example 18, N-((3-(((1-(3-amino-1H-1,2,4-triazol-5-yl)piperidin-4-yl)(4-bromophenethyl)-amino)methyl)phenyl)sulfonyl)acetamide] | 1 to 10 nM |
| CC(C)NC(=O)CN(CCc1ccc(Cl)cc1)C1CCN(c2nc(N)n[nH]2)CC1 [Example 22, 2-((1-(3-amino-1H-1,2,4-triazol-5-yl)piperidin-4-yl)(4-chlorophenethyl)amino)-N-isopropylacetamide] | 100 to 1000 nM |
| CS(=O)(=O)NCCCN(CCc1ccc(Br)cc1)C1CCN(c2nc(N)n[nH]2)CC1 [Example 23, N-(3-((1-(3-amino-1H-1,2,4-triazol-5-yl)piperidin-4-yl)(4-bromophenethyl)-amino)propyl)methanesulfonamide] | 1 to 10 nM |
| Cc1ccc(S(=O)(=O)NCCCN(CCc2ccc(Br)cc2)C2CCN(c3nc(N)n[nH]3)CC2)cc1 [Example 24, N-(3-((1-(3-amino-1H-1,2,4-triazol-5-yl)piperidin-4-yl)(4-bromophenethyl)-amino)propyl)-4-methylbenzenesulfonamide] | 1 to 10 nM |
| Nc1n[nH]c(N2CCC(N(CCC(=O)O)CCc3ccc(Cl)cc3)CC2)n1 [Example 26, 3-((1-(3-amino-1H-1,2,4-triazol-5-yl)piperidin-4-yl)(4-chlorophenethyl)-amino)propanoic acid] | 1000 to 10000 nM |
| Nc1n[nH]c(N2CCC(N(CCCC(=O)O)CCc3ccc(Cl)cc3)CC2)n1 [Example 27, 4-((1-(3-amino-1H-1,2,4-triazol-5-yl)piperidin-4-yl)(4-chlorophenethyl)-amino)butanoic acid] | 100 to 1000 nM |
| Nc1n[nH]c(N2CCC(N(CCc3ccc(Cl)cc3)C(CC(=O)O)c3ccc(Cl)cc3)CC2)n1 (centres unmarked) [Example 28, 3-((1-(3-amino-1H-1,2,4-triazol-5-yl)piperidin-4-yl)(4-chlorophenethyl)amino)-3-(4-chlorophenyl)propanoic acid] | 1000 to 10000 nM |
| Nc1n[nH]c(N2CCC(N(CCc3ccc(Cl)cc3)CC(C(=O)O)c3ccc(Cl)cc3)CC2)n1 (centres unmarked) [Example 29, 3-((1-(3-amino-1H-1,2,4-triazol-5-yl)piperidin-4-yl)(4-chlorophenethyl)amino)-2-(4-chlorophenyl)propanoic acid] | 10 to 100 nM |
| Nc1n[nH]c(N2CCC(N(CCc3ccc(Cl)cc3)CC3(C(=O)O)CC3)CC2)n1 [Example 30, 1-(((1-(3-amino-1H-1,2,4-triazol-5-yl)piperidin-4-yl)(4-chlorophenethyl)amino)-methyl)cyclopropanecarboxylic acid] | 1000 to 10000 nM |
| NC(=O)c1ccc(CN(CCc2ccc(Br)cc2)C2CCN(c3nc(N)n[nH]3)CC2)cc1 [Example 34, 4-(((1-(3-amino-1H-1,2,4-triazol-5-yl)piperidin-4-yl)(4-bromophenethyl)-amino)methyl)benzamide] | 1 to 10 nM |
| CNC(=O)c1ccc(CN(CCc2ccc(Br)cc2)C2CCN(c3nc(N)n[nH]3)CC2)cc1 [Example 35, 4-(((1-(3-amino-1H-1,2,4-triazol-5-yl)piperidin-4-yl)(4-bromophenethyl)-amino)methyl)-N-methylbenzamide] | 1 to 10 nM |
| Nc1n[nH]c(N2CCC(N(CCc3ccc(Cl)cc3)Cc3cccc(-c4nnn[nH]4)c3)CC2)n1 [Example 36, N-(3-(1H-tetrazol-5-yl)benzyl)-1-(3-amino-1H-1,2,4-triazol-5-yl)-N-(4-chlorophenethyl)piperidin-4-amine] | 1 to 10 nM |
| CC(=O)NS(=O)(=O)CCN(CCc1ccc(Cl)cc1)C1CCN(c2nc(N)n[nH]2)CC1 [Example 38, N-((2-((1-(3-amino-1H-1,2,4-triazol-5-yl)piperidin-4-yl)(4-chlorophenethyl)-amino)ethyl)sulfonyl)acetamide] | 10 to 100 nM |
| Cc1ccc(S(=O)(=O)NCCN(CCc2ccc(Br)cc2)C2CCN(c3nc(N)n[nH]3)CC2)cc1 [Example 42, N-(2-((1-(3-amino-1H-1,2,4-triazol-5-yl)piperidin-4-yl)(4-bromophenethyl)-amino)ethyl)-4-methylbenzenesulfonamide] | 1 to 10 nM |
| Nc1n[nH]c(N2CCC(N(CCc3ccc(Cl)cc3)Cc3nnn[nH]3)CC2)n1 [Example 43, N-((1H-tetrazol-5-yl)methyl)-1-(3-amino-1H-1,2,4-triazol-5-yl)-N-(4-chlorophenethyl)piperidin-4-amine] | 10 to 100 nM |

Results, then the compound that gave them:

| IC50 | SMILES |
| --- | --- |
| 10 to 100 nM | Nc1n[nH]c(N2CCC(N(CCc3ccc(Cl)cc3)Cc3cccc(S(=O)(=O)NCC(F)(F)F)c3)CC2)n1 [Example 19, 3-(((1-(3-amino-1H-1,2,4-triazol-5-yl)piperidin-4-yl)(4-chlorophenethyl)amino)-methyl)-N-(2,2,2-trifluoroethyl)benzenesulfonamide] |
| 100 to 1000 nM | Nc1n[nH]c(N2CCC(N(CCc3ccc(Cl)cc3)CC(=O)Nc3ccccc3)CC2)n1 [Example 21, 2-((1-(3-amino-1H-1,2,4-triazol-5-yl)piperidin-4-yl)(4-chlorophenethyl)amino)-N-phenylacetamide] |
| 10 to 100 nM | CS(=O)(=O)Nc1ccccc1CN(CCc1ccc(Cl)cc1)C1CCN(c2nc(N)n[nH]2)CC1 [Example 31, N-(2-(((1-(3-amino-1H-1,2,4-triazol-5-yl)piperidin-4-yl)(4-chlorophenethyl)-amino)methyl)phenyl)methanesulfonamide] |
| 1 to 10 nM | CS(=O)(=O)Nc1cccc(CN(CCc2ccc(Cl)cc2)C2CCN(c3nc(N)n[nH]3)CC2)c1 [Example 32, N-(3-(((1-(3-amino-1H-1,2,4-triazol-5-yl)piperidin-4-yl)(4-chlorophenethyl)-amino)methyl)phenyl)methanesulfonamide] |
| 1 to 10 nM | CS(=O)(=O)Nc1ccc(CN(CCc2ccc(Cl)cc2)C2CCN(c3nc(N)n[nH]3)CC2)cc1 [Example 33, N-(4-(((1-(3-amino-1H-1,2,4-triazol-5-yl)piperidin-4-yl)(4-chlorophenethyl)-amino)methyl)phenyl)methanesulfonamide] |
| 1 to 10 nM | CS(=O)(=O)NC(=O)c1ccc(CN(CCc2ccc(Cl)cc2)C2CCN(c3nc(N)n[nH]3)CC2)cc1 [Example 39, 4-(((1-(3-amino-1H-1,2,4-triazol-5-yl)piperidin-4-yl)(4-chlorophenethyl)-amino)methyl)-N-(methylsulfonyl)benzamide] |
| 1 to 10 nM | CS(=O)(=O)NC(=O)c1cccc(CN(CCc2ccc(Cl)cc2)C2CCN(c3nc(N)n[nH]3)CC2)c1 [Example 40, 3-(((1-(3-amino-1H-1,2,4-triazol-5-yl)piperidin-4-yl)(4-chlorophenethyl)amino)-methyl)-N-(methylsulfonyl)benzamide] |
| 10 to 100 nM | CS(=O)(=O)NC(=O)c1cc(CN(CCc2ccc(Cl)cc2)C2CCN(c3nc(N)n[nH]3)CC2)ccc1Cl [Example 41, 5-(((1-(3-amino-1H-1,2,4-triazol-5-yl)piperidin-4-yl)(4-chlorophenethyl)amino)-methyl)-2-chloro-N-(methylsulfonyl)benzamide] |

— patent US9440953B2, “Substituted amino triazoles useful as acidic mammalian chitinase inhibitors” (OncoArendi Therapeutics Sp z o.o., priority 2014, dated 2016)
